Legend:
Assay in all cases: fluorogenic peptidase assay, initial rate
Type in all cases: biochemical
cathepsin K = biological target: T1, cathepsin K (Homo sapiens, UniProt P43235)
T1 sequence (P43235 115-329): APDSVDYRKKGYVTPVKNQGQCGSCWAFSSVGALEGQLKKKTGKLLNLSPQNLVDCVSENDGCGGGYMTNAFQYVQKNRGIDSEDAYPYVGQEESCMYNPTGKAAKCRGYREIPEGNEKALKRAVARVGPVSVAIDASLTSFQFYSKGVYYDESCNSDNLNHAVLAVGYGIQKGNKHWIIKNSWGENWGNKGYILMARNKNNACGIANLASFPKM

cathepsin B = cathepsin B (Homo sapiens, UniProt P07858)
cathepsin L = cathepsin L (Homo sapiens, UniProt P07711)
cathepsin L, sequence (P07711 114-288): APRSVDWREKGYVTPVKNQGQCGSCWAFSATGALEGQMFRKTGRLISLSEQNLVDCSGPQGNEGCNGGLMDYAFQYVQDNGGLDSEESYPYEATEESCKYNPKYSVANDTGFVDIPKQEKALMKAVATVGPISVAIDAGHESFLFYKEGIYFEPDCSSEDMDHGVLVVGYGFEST
cathepsin L, sequence (P07711 292-333): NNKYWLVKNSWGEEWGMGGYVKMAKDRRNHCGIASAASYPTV

## O=C[C@H](C[C@@H]1CCNC1=O)NC(=O)[C@H](CC1CCCCC1)NC(=O)c1cc2ccccc2[nH]1 [11a]
Cathepsin K
  IC50: 1.4 ± 0.2 nM
Cathepsin B
  IC50: 4.9 ± 0.4 nM
Cathepsin L
  IC50: 0.14 ± 0.04 nM

## O=C[C@H](C[C@@H]1CCNC1=O)NC(=O)[C@H](Cc1ccccc1)NC(=O)OCc1ccccc1 [MPI1]
Cathepsin K
  IC50: 0.88 ± 0.12 nM
Cathepsin B
  IC50: 25 ± 2 nM
Cathepsin L
  IC50: 0.079 ± 0.029 nM

## O=C[C@H](C[C@@H]1CCNC1=O)NC(=O)[C@H](Cc1ccccc1)NC(=O)/C=C/c1ccc(Cl)cc1F [MPI2]
Cathepsin K
  IC50: 0.78 ± 0.06 nM
Cathepsin B
  IC50: 4.1 ± 0.4 nM
Cathepsin L
  IC50: 0.19 ± 0.03 nM

## CC(C)C[C@H](NC(=O)[C@@H](NC(=O)OCc1ccccc1)C(C)C)C(=O)N[C@H](C=O)C[C@@H]1CCNC1=O [MPI3]
Cathepsin K
  IC50: 1.18 ± 0.18 nM
Cathepsin B
  IC50: 112 ± 10 nM
Cathepsin L
  IC50: 0.3 ± 0.07 nM

## CC(C)[C@H](NC(=O)OCc1ccccc1)C(=O)N[C@@H](Cc1ccccc1)C(=O)N[C@H](C=O)C[C@@H]1CCNC1=O [MPI4]
Cathepsin K
  IC50: 49 ± 16 nM
Cathepsin B
  IC50: 46 ± 3 nM
Cathepsin L
  IC50: 0.33 ± 0.04 nM

## CC(C)[C@H](NC(=O)OCc1ccccc1)C(=O)N[C@@H](CC1CCCCC1)C(=O)N[C@H](C=O)C[C@@H]1CCNC1=O [MPI5]
Cathepsin K
  IC50: 134 ± 18 nM
Cathepsin B
  IC50: 80 ± 6 nM
Cathepsin L
  IC50: 2.3 ± 1.9 nM

## CC(C)C[C@H](NC(=O)[C@@H](NC(=O)OCc1ccccc1)[C@@H](C)OC(C)(C)C)C(=O)N[C@H](C=O)C[C@@H]1CCNC1=O [MPI6]
Cathepsin K
  IC50: 1.07 ± 0.21 nM
Cathepsin B
  IC50: 380 ± 21 nM
Cathepsin L
  IC50: 0.45 ± 0.08 nM

## C[C@@H](OC(C)(C)C)[C@H](NC(=O)OCc1ccccc1)C(=O)N[C@@H](Cc1ccccc1)C(=O)N[C@H](C=O)C[C@@H]1CCNC1=O [MPI7]
Cathepsin K
  IC50: 51 ± 6 nM
Cathepsin B
  IC50: 64 ± 7 nM
Cathepsin L
  IC50: 0.61 ± 0.15 nM

## C[C@@H](OC(C)(C)C)[C@H](NC(=O)OCc1ccccc1)C(=O)N[C@@H](CC1CCCCC1)C(=O)N[C@H](C=O)C[C@@H]1CCNC1=O [MPI8]
Cathepsin B
  IC50: 230 ± 20 nM

## CC(C)C[C@H](NC(=O)[C@@H](NC(=O)/C=C/c1ccc(Cl)cc1F)C(C)C)C(=O)N[C@H](C=O)C[C@@H]1CCNC1=O [MPI9]
Cathepsin K
  IC50: 1.5 ± 0.2 nM
Cathepsin B
  IC50: 147 ± 10 nM
Cathepsin L
  IC50: 0.56 ± 0.06 nM

— paper doi:10.1101/2021.06.10.447950v1 (biorxiv, 2021)
